Reference: US5298491A, “Derivatives of endogenous mediators, their salts, method of preparation, applications and compositions in which they are present” (priority 1990, dated 1994)
“Also recorded” adds a separate entry of the source. Read-outs that look alike come from different tables or passages of the source.

Experiments:
5-HT1D sites [1] = target: T1, 5-HT1D sites (Macaca mulatta, UniProt F6SFA9); assay: Displacement of S-CM-G[125I]TNH2 binding with serotonin in monkey brain sections; set-up: species or system monkey (Macacca mulatta n.); conditions: displacement of 0.02 nM S-CM-G[125I]TNH2, read-out: IC50 (concentration which inhibits 50% of the binding)
T1 construct: The right hemisphere is cut out and frozen by isopentane cooled in liquid nitrogen; from tissue; host or cells: rhesus monkey brain sections (right hemisphere, 10 μm, frozen), substantia nigra
Experimental: (§1) A male monkey (Macacca mulatta n.) weighing 8 kg was sacrificed by means of an overdose of barbiturates and exsanguination. […] The right hemisphere is cut out and frozen by isopentane cooled in liquid nitrogen. The block is stored at -20° C. 10 μm thick sections are prepared in a cryostat at -20° C. and placed on gelatin-coated slides (Segu et al., 1990, J. Neurosci. Meth., 31, 197). They are stored at -20° C. until required.
(§2) The sections are preincubated for 1 h at 4° C. in a Krebs solution (mM: NaCl, 118; KCl, 4.5; CaCl2, 1.2; MgCl2, […]; Tris, 15; pH 7.4) in order to remove the endogenous ligands. They are then incubated at 20° C. for 60 minutes in a solution containing 10^-5 M pargyline, 57 mM ascorbic acid, 10 g/l of bovine serum albumin and 0.02 nM S--CM-G[^125 I]TNH2, alone or in the presence of increasing concentrations of serotonin. Some of the sections are incubated under identical conditions except that the radioactive probe is replaced either with 2 nM [^3 H]5-HT, or with 2 nM [^3 H]5-HT in the presence of 100 nM 8-hydroxy-2-[di-N-propylamino]tetralin (8-OH-DPAT) and 100 nM mesulergin, or with 1 nM [^3 H]8-OH-DPAT. After rinsing 2 x for 1 minute in distilled water, the sections are dried.
(§3) The slides are affixed to a tritium-sensitive film for 8 days. […] The autoradiographs are quantified with a video system for image analysis (Segu et al., 1990).

[2] = system: receptor binding sites with a high affinity for serotonin (5-HT1); assay: Displacement, by the derivatives S-CM-R, of the high affinity binding of [3H]5-HT in rat brain sections; conditions: 2 nM [3H]5-HT
From the text: The distribution of the receptor binding sites with a high affinity for serotonin (5-HT1) is heterogeneous in the central nervous system of the rat (Pazos and Palacios, Brain Research, 346, 1985, p. 205-230; Segu et al., Brain Research, 384, 1986, p. 205-217). Furthermore, the content of subtypes of 5-HT1 sites varies according to the anatomical structure in question.
The protocol for preparing the brain sections is common to all the studies which follow. The animals are decapitated after anaesthesia with chloral hydrate (400 mg/kg of gross weight). The brains are quickly removed from the skull and frozen by immersion in isopentane cooled by liquid nitrogen. 20 μm sections, prepared in a cryostat at -20° C., are mounted on gelatin-coated slides and stored at -20° C.
The sections are preincubated for 1 hour at 4° C. in a Krebs solution (NaCl 118 mM; KCl 4.8 mm; CaCl2 1.2 mM; MgCl2 1.2 mM; Tris-HCl 15 mM, pH 7.4) in order to remove the endogenous ligands.
1. Displacement, by the derivatives S-CM-R, of the high affinity binding of serotonin in rat brain sections
The incubations take place for 60 minutes at 20° C. in a Krebs solution containing 10 μM pargyline, 5.7.10^-4 M ascorbic acid, 2 nM [^3 H]5-HT (NEN, As=30 Ci/mmol) and increasing concentrations of derivatives S-CM-R. The non-specific binding is determined on homothetic sections under the same conditions, but in the presence of 10^-5 M 5-HT.
After incubation, the sections are rinsed three times for 20 seconds in distilled water and dried by a stream of hot air. The sections are affixed to a film (Amersham) for 6 weeks in the presence of a standard ([^3 H] microscale, Amersham). The films are developed for 6 minutes with Kodak D19, rinsed and fixed with AL4 (Kodak). Quantitative analysis of the autoradiographs is performed with an image analysis system (Segu et al., J. Neurosci. Methods, 31, 1990, p. 197-208).

[3] = Passage across the blood-brain barrier after intracardiac injection (brain autoradiography); format: in vivo, mice and guinea-pigs; conditions: intracardiac injection; 10 minutes; conclusion
Experimental: 2 mice and 2 guinea-pigs are deeply anaesthetized with chloral hydrate (intraperitoneal injection of 0.12 ml of a 35% solution per 100 g of body weight).
The mice and guinea-pigs receive intracardiac injections of 200 μl and 1.5 ml, respectively, of S--CM-G[^125 I]TNH2.
After 10 minutes, the animals, still under deep anaesthesia, are decapitated and the brains are frozen and stored as indicated in Example 1.
Sections are prepared and autoradiography is carried out as described in Example 1.

5-HT1A sites = target: T2, 5-HT1A sites (Macaca mulatta, UniProt F7GIU0); assay: Labelling of hippocampus in monkey brain sections (autoradiography); format: binding, monkey (Macacca mulatta n.)
T2 sequence (F7GIU0 1-421): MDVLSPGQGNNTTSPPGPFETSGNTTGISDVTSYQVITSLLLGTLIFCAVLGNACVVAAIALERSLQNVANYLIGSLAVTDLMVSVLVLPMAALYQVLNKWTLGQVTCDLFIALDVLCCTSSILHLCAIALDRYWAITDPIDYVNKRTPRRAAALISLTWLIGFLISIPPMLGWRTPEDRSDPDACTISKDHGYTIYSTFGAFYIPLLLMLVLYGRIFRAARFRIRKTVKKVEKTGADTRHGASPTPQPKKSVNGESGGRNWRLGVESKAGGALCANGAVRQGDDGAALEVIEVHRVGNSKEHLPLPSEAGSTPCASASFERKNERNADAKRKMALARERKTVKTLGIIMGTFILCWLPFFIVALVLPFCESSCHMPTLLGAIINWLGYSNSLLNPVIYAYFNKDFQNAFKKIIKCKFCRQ
Experimental: as §1, §2, §3

5-HT1D sites [4] = assay: Labelling of substantia nigra in monkey brain sections (autoradiography); format: binding, monkey (Macacca mulatta n.); conditions: 1 nM [3H]8-OH-DPAT
Experimental: (§4) A male monkey (Macacca mulatta n.) weighing 8 kg was sacrificed by means of an overdose of barbiturates and exsanguination. […] The right hemisphere is cut out and frozen by isopentane cooled in liquid nitrogen. The block is stored at -20° C. […] They are stored at -20° C. until required.
(§5) Some of the sections are incubated under identical conditions except that the radioactive probe is replaced either with 2 nM [^3 H]5-HT, or with 2 nM [^3 H]5-HT in the presence of 100 nM 8-hydroxy-2-[di-N-propylamino]tetralin (8-OH-DPAT) and 100 nM mesulergin, or with 1 nM [^3 H]8-OH-DPAT. After rinsing 2 x for 1 minute in distilled water, the sections are dried.
(§6) The slides are affixed to a tritium-sensitive film for 8 days. The film is developed for 6 minutes in D19, rinsed and fixed.

5-HT1D sites [5] = target: T1, 5-HT1D sites; assay: as above; format: binding, monkey (Macacca mulatta n.)
Experimental: as §4, §5, §6

[6] = 60 min at 20° C, single IC50, read-out: IC50 (displacement of specific binding of [3H]5-HT)
[7] = two-phase process, first site, read-out: IC50 for the first site (displacement of [3H]5-HT)
[8] = two-phase process, second site, read-out: IC50 for the second site (displacement of [3H]5-HT)

T1 sequence (F6SFA9 1-390): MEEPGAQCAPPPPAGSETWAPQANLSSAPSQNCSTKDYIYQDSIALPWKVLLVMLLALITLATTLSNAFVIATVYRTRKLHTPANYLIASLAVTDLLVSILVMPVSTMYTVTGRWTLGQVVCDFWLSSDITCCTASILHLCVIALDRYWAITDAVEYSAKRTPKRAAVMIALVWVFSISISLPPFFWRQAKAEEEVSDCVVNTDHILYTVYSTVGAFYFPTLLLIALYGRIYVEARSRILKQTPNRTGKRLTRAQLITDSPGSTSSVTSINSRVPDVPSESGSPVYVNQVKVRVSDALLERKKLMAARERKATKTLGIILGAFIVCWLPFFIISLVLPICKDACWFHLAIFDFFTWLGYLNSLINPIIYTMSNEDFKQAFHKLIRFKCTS

## NCCc1c[nH]c2ccc(O)cc12 [5-HT, reference compound]
5-HT1D sites [1]
  IC50: ~0.005 µM
[2]
  phases of displacement of [3H]5-HT specific binding: one-phase process
[2]; [6]
  IC50: 0.002 µM

## NCCc1c[nH]c2ccc(OCC(=O)O)cc12 [S--CM]
[2]; [6]
  IC50: 1 µM

## NCCc1c[nH]c2ccc(OCC(=O)NCC(=O)N[C@@H](Cc3ccc(O)cc3)C(N)=O)cc12 [S-CM-GTNH2, tryptamine-5-O-carboxymethylglycyltyrosinamide]
[2]
  phases of displacement of [3H]5-HT specific binding: two-phase process
[2]; [7]
  IC50: 0.02 µM
[2]; [8]
  IC50: 0.4 µM
[3]
  passage across the blood-brain barrier: unable to pass through the blood-brain barrier

## NCCc1c[nH]c2ccc(OCC(=O)N[C@@H](Cc3ccc(O)cc3)C(=O)NCC(N)=O)cc12 [S-CM-Tyr-GlyNH2]
[2]
  phases of displacement of [3H]5-HT specific binding: two-phase process
[2]; [7]
  IC50: 0.02 µM
[2]; [8]
  IC50: 0.4 µM

## CCCN(CCC)C1CCc2cccc(O)c2C1 (stereo not shown) [[^3 H]8-OH-DPAT, 8-hydroxy-2-[di-N-propylamino]tetralin]
5-HT1A sites; 1 nM [3H]8-OH-DPAT
  labelling of the hippocampus: intense labelling; also recorded: showing the 5-HT1A sites exclusively located in the hippocampus
5-HT1D sites [4]
  labelling of the substantia nigra: not the substantia nigra

## [^3 H]5-HT [reference compound]
5-HT1A sites; 2 nM [3H]5-HT
  labelling of the hippocampus: substantial labelling; also recorded: showing the total 5-HT1 sites in the hippocampus (H)
5-HT1D sites [5]; 2 nM [3H]5-HT
  labelling of the substantia nigra: substantial labelling; also recorded: showing the total 5-HT1 sites in the hippocampus (H) and the substantia nigra (SN)
5-HT1D sites [5]; 2 nM [3H]5-HT in the presence of 100 nM 8-OH-DPAT and 100 nM mesulergin
  labelling of the substantia nigra: strong reaction with the substantia nigra; also recorded: showing the 5-HT1B sites virtually exclusively located in "the substantia nigra
